Here are results for 20 molecules from PubChem BioAssay AID256 (DTP/NCI, 2004).

In the assay the test system is CD2F1 mice, L1210 leukemia ip, survival T/C. Description: NCI In Vivo Anticancer Drug Screen. Data for tumor model L1210 Leukemia (intraperitoneal) in CD2F1 (CDF1) mice. Conditions: higher = longer survival. A digest of the protocol:
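Activity against a transplanted murine tumor was judged by comparing the compound group with a vehicle group. The outcome in the treated animals was divided by that in the controls.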

Where [1] appears, read: endpoint: mean survival time, dose: 100.0 mg/kg/injection, schedule: Q01DX009 (ip), vehicle: saline.
Setting [2] is: endpoint: mean survival time, dose: 100.0 mg/kg/injection, schedule: Q04DX003 (ip), vehicle: saline.
Where [3] appears, read: endpoint: mean survival time, dose: 200.0 mg/kg/injection, schedule: Q01DX009 (ip), vehicle: saline.
Setting [4] is: endpoint: mean survival time, dose: 200.0 mg/kg/injection, schedule: Q04DX003 (ip), vehicle: saline.
Setting [5] is: endpoint: mean survival time, dose: 100.0 mg/kg/injection, schedule: Q04DX003 (ip), vehicle: saline with Tween-80.
Where [6] appears, read: endpoint: mean survival time, dose: 200.0 mg/kg/injection, schedule: Q04DX003 (ip), vehicle: saline with Tween-80.
Where [7] appears, read: endpoint: mean survival time, dose: 400.0 mg/kg/injection, schedule: Q04DX003 (ip), vehicle: saline with Tween-80.
[8] abbreviates: endpoint: mean survival time, dose: 100.0 mg/kg/injection, schedule: Q01DX001 (ip), vehicle: saline with Tween-80.
The mark [9] stands for this setting: endpoint: mean survival time, dose: 200.0 mg/kg/injection, schedule: Q01DX001 (ip), vehicle: saline with Tween-80.
Setting [10] is: endpoint: mean survival time, dose: 400.0 mg/kg/injection, schedule: Q01DX001 (ip), vehicle: saline with Tween-80.

“And” between values parts separate entries of the source, which are not always exact repeats. Identical values can stand only once. Inconclusive results and toxic doses are left out.

Regarding `CN(C)N=Nc1ccc(C(=O)O)cc1`, the T/C runs as follows: (endpoint: mean survival time, dose: 25.0 mg/kg/injection, schedule: Q01DX009 (ip), vehicle: saline) 112 % of control; (endpoint: mean survival time, dose: 25.0 mg/kg/injection, schedule: Q04DX003 (ip), vehicle: saline) 96 % of control; (endpoint: mean survival time, dose: 45.0 mg/kg/injection, schedule: Q01DX009 (ip), vehicle: saline) 124 % of control; (endpoint: mean survival time, dose: 50.0 mg/kg/injection, schedule: Q01DX009 (ip), vehicle: saline) 124 % of control; (endpoint: mean survival time, dose: 50.0 mg/kg/injection, schedule: Q04DX003 (ip), vehicle: saline) 102 % of control; (endpoint: mean survival time, dose: 65.0 mg/kg/injection, schedule: Q01DX009 (ip), vehicle: saline) 154 % of control. Further, the T/C was 172 % of control under setting [1]; 109 % of control under setting [2]; 90 % of control under setting [3]; 123 % of control under setting [4]; 103 % of control (endpoint: mean survival time, dose: 400.0 mg/kg/injection, schedule: Q04DX003 (ip), vehicle: saline); 122 % of control (endpoint: median survival time, dose: 25.0 mg/kg/injection, schedule: Q01DX005 (ip), vehicle: saline). Besides, the T/C was 116 % of control (endpoint: median survival time, dose: 36.0 mg/kg/injection, schedule: Q01DX005 (ip), vehicle: saline); 124 % of control (endpoint: median survival time, dose: 50.0 mg/kg/injection, schedule: Q01DX005 (ip), vehicle: saline); 151 % of control and 170 % of control (endpoint: median survival time, dose: 100.0 mg/kg/injection, schedule: Q01DX005 (ip), vehicle: saline); 179 % of control (endpoint: median survival time, dose: 166.6 mg/kg/injection, schedule: Q01DX005 (ip), vehicle: saline); 112 % of control (endpoint: median survival time, dose: 200.0 mg/kg/injection, schedule: Q01DX005 (ip), vehicle: saline).

For the molecule `CCN(CC)CCCNc1cc(OC)cc2nc3cc(Cl)ccc3nc12`, the T/C by setting is: (endpoint: mean survival time, dose: 12.5 mg/kg/injection, schedule: Q01DX009 (ip), vehicle: suspension in saline) 98 % of control; (endpoint: mean survival time, dose: 25.0 mg/kg/injection, schedule: Q01DX009 (ip), vehicle: suspension in saline) 100 % of control and 101 % of control; (endpoint: mean survival time, dose: 50.0 mg/kg/injection, schedule: Q01DX009 (ip), vehicle: suspension in saline) 98 % of control and 105 % of control; (endpoint: mean survival time, dose: 100.0 mg/kg/injection, schedule: Q01DX009 (ip), vehicle: suspension in saline) 101 % of control and 108 % of control; (endpoint: mean survival time, dose: 200.0 mg/kg/injection, schedule: Q01DX009 (ip), vehicle: suspension in saline) 112 % of control.

`CCOCCN1CCN(CCCN2c3ccccc3Sc3ccc(C(F)(F)F)cc32)CC1`: the T/C was 103 % of control (endpoint: mean survival time, dose: 1.75 mg/kg/injection, schedule: Q01DX001 (ip), vehicle: water); 106 % of control (endpoint: mean survival time, dose: 3.5 mg/kg/injection, schedule: Q01DX001 (ip), vehicle: water); 105 % of control (endpoint: mean survival time, dose: 7.0 mg/kg/injection, schedule: Q01DX001 (ip), vehicle: water); 102 % of control (endpoint: mean survival time, dose: 9.9 mg/kg/injection, schedule: Q01DX001 (ip), vehicle: water); 98 % of control (endpoint: mean survival time, dose: 15.0 mg/kg/injection, schedule: Q01DX001 (ip), vehicle: water); 106 % of control (endpoint: mean survival time, dose: 22.0 mg/kg/injection, schedule: Q01DX001 (ip), vehicle: water). Also, the T/C (endpoint: mean survival time, dose: 37.5 mg/kg/injection, schedule: Q04DX003 (ip), vehicle: saline) was 122 % of control.

Consider `CC(=Nc1ccccc1)c1cccs1`, for which the T/C was 95 % of control under setting [5], 101 % of control under setting [6] and 87 % of control under setting [7].

In the case of `Brc1cscc1-c1ccccc1`, the T/C runs as follows: under setting [5], 93 % of control; under setting [6], 102 % of control; under setting [7], 98 % of control.

In the case of `[O-]/[N+](=C\c1ccccc1)C1CCCCC1`, the T/C is 94 % of control under setting [8], 95 % of control under setting [9] and 95 % of control under setting [10].

Regarding `CCNc1nc(NC(C)C)nc(OC)n1`, the T/C (endpoint: mean survival time, dose: 50.0 mg/kg/injection, schedule: Q01DX009 (ip), vehicle: saline with Tween-80) was 98 % of control; the T/C (endpoint: mean survival time, dose: 100.0 mg/kg/injection, schedule: Q01DX009 (ip), vehicle: saline with Tween-80) is 93 % of control; the T/C under setting [2] is 101 % of control; the T/C (endpoint: mean survival time, dose: 200.0 mg/kg/injection, schedule: Q01DX009 (ip), vehicle: saline with Tween-80) was 96 % of control; the T/C under setting [4] is 103 % of control.

As for `C=CC#N`, the T/C is 105 % of control (endpoint: mean survival time, dose: 12.5 mg/kg/injection, schedule: Q04DX003 (ip), vehicle: saline with Tween-80); 102 % of control (endpoint: mean survival time, dose: 25.0 mg/kg/injection, schedule: Q04DX003 (ip), vehicle: saline with Tween-80); 108 % of control (endpoint: mean survival time, dose: 50.0 mg/kg/injection, schedule: Q04DX003 (ip), vehicle: saline with Tween-80).

On to `O=C(NCCCl)Nc1ccccc1Cl`, for which the T/C runs as follows: under setting [8], 90 % of control; under setting [9], 94 % of control; under setting [10], 98 % of control.

Turning to `C1COC2(CCC3C2C2CCC4(OCCO4)C32)O1` (stereo unspecified), the T/C was 103 % of control under setting [5], 101 % of control under setting [6] and 116 % of control under setting [7].

On to `C=Cc1nnnn1C12CC3CC(CC(C3)C1)C2`, for which the T/C was 106 % of control (endpoint: mean survival time, dose: 50.0 mg/kg/injection, schedule: Q01DX001 (ip), vehicle: saline with Tween-80) and 112 % of control under setting [8].

`CCC1(C)CC(=O)NC1=O` (stereo unspecified): the T/C is 98 % of control (endpoint: mean survival time, dose: 75.0 mg/kg/injection, schedule: Q01DX001 (ip), vehicle: saline); 104 % of control (endpoint: mean survival time, dose: 150.0 mg/kg/injection, schedule: Q01DX001 (ip), vehicle: saline); 96 % of control (endpoint: mean survival time, dose: 300.0 mg/kg/injection, schedule: Q01DX001 (ip), vehicle: saline).

Consider `COc1ccc2c(C(=O)CCC(=O)O)cccc2c1`, for which the T/C under setting [1] was 94 % of control; the T/C under setting [3] is 90 % of control; the T/C (endpoint: mean survival time, dose: 400.0 mg/kg/injection, schedule: Q01DX009 (ip), vehicle: saline) was 100 % of control.

Take `Cc1ccc2[nH]c(=O)oc(=O)c2c1`: the T/C runs as follows: under setting [5], 104 % of control; under setting [6], 98 % of control; under setting [7], 106 % of control.

Regarding `CCCCCN1C(=O)CCC1=O`, the T/C under setting [5] is 112 % of control, the T/C under setting [6] is 109 % of control and the T/C under setting [7] is 104 % of control.

With `COc1ccc(NCC(=O)O)c([N+](=O)[O-])c1`, the T/C is, setting by setting: under setting [5], 91 % of control; under setting [6], 101 % of control.

`CN(C)c1ncnc2c1ncn2-c1cccc(-n2cnc3c(N(C)C)ncnc32)c1`: the T/C runs as follows: (endpoint: mean survival time, dose: 1.25 mg/kg/injection, schedule: Q01DX005 (ip), vehicle: other) 103 % of control; (endpoint: mean survival time, dose: 2.5 mg/kg/injection, schedule: Q01DX005 (ip), vehicle: other) 88 % of control; (endpoint: mean survival time, dose: 5.0 mg/kg/injection, schedule: Q01DX005 (ip), vehicle: other) 92 % of control; (endpoint: mean survival time, dose: 10.0 mg/kg/injection, schedule: Q01DX005 (ip), vehicle: other) 92 % of control; (endpoint: mean survival time, dose: 20.0 mg/kg/injection, schedule: Q01DX005 (ip), vehicle: other) 88 % of control.

As for `CCC(=O)O/N=C(\c1ccccc1)c1cccnc1`, the T/C reads like this: (endpoint: mean survival time, dose: 100.0 mg/kg/injection, schedule: Q01DX001 (ip), vehicle: other) 113 % of control; (endpoint: mean survival time, dose: 200.0 mg/kg/injection, schedule: Q01DX001 (ip), vehicle: other) 98 % of control; (endpoint: mean survival time, dose: 400.0 mg/kg/injection, schedule: Q01DX001 (ip), vehicle: other) 101 % of control.

As for `COC1=CC=C2C3Cc4ccc(OC)c(O)c4C2(C1)CN3C` (stereo unspecified), the T/C was 102 % of control (endpoint: mean survival time, dose: 25.0 mg/kg/injection, schedule: Q01DX009 (ip), vehicle: Klucel (hydroxypropylcellulose) (HPC)); 104 % of control (endpoint: mean survival time, dose: 50.0 mg/kg/injection, schedule: Q01DX009 (ip), vehicle: Klucel (hydroxypropylcellulose) (HPC)); 103 % of control (endpoint: mean survival time, dose: 100.0 mg/kg/injection, schedule: Q01DX009 (ip), vehicle: Klucel (hydroxypropylcellulose) (HPC)).

As to `COc1ccc2c(c1O)C1=CC(=O)CCC13CCN(C)C3C2` (stereo unspecified), the T/C is 103 % of control under setting [1] and 96 % of control under setting [3].
